Laboratory results published in PubChem BioAssay (NCI).
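A five-concentration, 48-hour dose response in 96-well plates underlies each endpoint, interpolated linearly between surrounding concentrations. The concentration for full growth arrest is given as TGI.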

Key:
Assay in all cases: NCI tumour cell line growth inhibition, 48 h
SK-MEL-2 melanoma = tested on: SK-MEL-2 melanoma
TK-10 renal = tested on: TK-10 renal
RXF 393 renal = tested on: RXF 393 renal
SF-295 CNS = tested on: SF-295 CNS
COLO 205 colon = tested on: COLO 205 colon
ACHN renal = tested on: ACHN renal
DLD-1 colon = tested on: DLD-1 colon
M14 melanoma = tested on: M14 melanoma
HOP-18 NSCLC = tested on: HOP-18 NSCLC
KM12 colon = tested on: KM12 colon
HCT-116 colon = tested on: HCT-116 colon
M19-MEL melanoma = tested on: M19-MEL melanoma
CAKI-1 renal = tested on: CAKI-1 renal
SW-620 colon = tested on: SW-620 colon
SF-539 CNS = tested on: SF-539 CNS
DMS 273 small cell lung = tested on: DMS 273 small cell lung
CCRF-CEM leukemia = tested on: CCRF-CEM leukemia
HT29 colon = tested on: HT29 colon
SK-MEL-5 melanoma = tested on: SK-MEL-5 melanoma
UACC-257 melanoma = tested on: UACC-257 melanoma
MALME-3M melanoma = tested on: MALME-3M melanoma
XF 498 CNS = tested on: XF 498 CNS
UACC-62 melanoma = tested on: UACC-62 melanoma
OVCAR-3 ovarian = tested on: OVCAR-3 ovarian
UO-31 renal = tested on: UO-31 renal
HOP-62 NSCLC = tested on: HOP-62 NSCLC
NCI-H23 lung = tested on: NCI-H23 lung
NCI-H226 lung = tested on: NCI-H226 lung
EKVX NSCLC = tested on: EKVX NSCLC
HL-60(TB) leukemia = tested on: HL-60(TB) leukemia
IGROV1 ovarian = tested on: IGROV1 ovarian
OVCAR-8 ovarian = tested on: OVCAR-8 ovarian
A498 renal = tested on: A498 renal
SNB-19 CNS = tested on: SNB-19 CNS
HCT-15 colon = tested on: HCT-15 colon
OVCAR-4 ovarian = tested on: OVCAR-4 ovarian
RPMI-8226 leukemia = tested on: RPMI-8226 leukemia
786-0 renal = tested on: 786-0 renal
LOX IMVI melanoma = tested on: LOX IMVI melanoma
NCI-H460 lung = tested on: NCI-H460 lung
SK-MEL-28 melanoma = tested on: SK-MEL-28 melanoma
HCC-2998 colon = tested on: HCC-2998 colon
OVCAR-5 ovarian = tested on: OVCAR-5 ovarian
SK-OV-3 ovarian = tested on: SK-OV-3 ovarian
SNB-78 CNS = tested on: SNB-78 CNS
LXFL 529 NSCLC = tested on: LXFL 529 NSCLC
SF-268 CNS = tested on: SF-268 CNS
K-562 leukemia = tested on: K-562 leukemia
KM20L2 colon = tested on: KM20L2 colon
A549 NSCLC = tested on: A549 NSCLC
DMS 114 small cell lung = tested on: DMS 114 small cell lung
HOP-92 NSCLC = tested on: HOP-92 NSCLC
SNB-75 CNS = tested on: SNB-75 CNS
SN12C renal = tested on: SN12C renal
MOLT-4 leukemia = tested on: MOLT-4 leukemia
U251 CNS = tested on: U251 CNS
NCI-H522 lung = tested on: NCI-H522 lung
SR leukemia = tested on: SR leukemia

SMILES: OC1CN(OC/C=C/c2ccccc2)CC(O)C1O (centres undefined)
- TGI (SK-MEL-2 melanoma): > 100 µM
- TGI (TK-10 renal): > 100 µM
- TGI (RXF 393 renal): > 100 µM
- TGI (SF-295 CNS): > 100 µM
- TGI (COLO 205 colon): > 100 µM
- TGI (ACHN renal): > 100 µM
- TGI (DLD-1 colon): > 100 µM
- TGI (M14 melanoma): > 100 µM
- TGI (HOP-18 NSCLC): > 100 µM
- TGI (KM12 colon): > 100 µM
- TGI (HCT-116 colon): > 100 µM
- TGI (M19-MEL melanoma): > 100 µM
- TGI (CAKI-1 renal): > 100 µM
- TGI (SW-620 colon): > 100 µM
- TGI (SF-539 CNS): > 100 µM
- TGI (DMS 273 small cell lung): > 100 µM
- TGI (CCRF-CEM leukemia): > 100 µM
- TGI (HT29 colon): > 100 µM
- TGI (SK-MEL-5 melanoma): > 100 µM
- TGI (UACC-257 melanoma): > 100 µM
- TGI (MALME-3M melanoma): > 100 µM
- TGI (XF 498 CNS): > 100 µM
- TGI (UACC-62 melanoma): > 100 µM
- TGI (OVCAR-3 ovarian): > 100 µM
- TGI (UO-31 renal): > 100 µM
- TGI (HOP-62 NSCLC): > 100 µM
- TGI (NCI-H23 lung): > 100 µM
- TGI (NCI-H226 lung): > 100 µM
- TGI (EKVX NSCLC): > 100 µM
- TGI (HL-60(TB) leukemia): > 100 µM
- TGI (IGROV1 ovarian): > 100 µM
- TGI (OVCAR-8 ovarian): > 100 µM
- TGI (A498 renal): > 100 µM
- TGI (SNB-19 CNS): > 100 µM
- TGI (HCT-15 colon): > 100 µM
- TGI (OVCAR-4 ovarian): > 100 µM
- TGI (RPMI-8226 leukemia): > 100 µM
- TGI (786-0 renal): 77 µM
- TGI (LOX IMVI melanoma): > 100 µM
- TGI (NCI-H460 lung): > 100 µM
- TGI (SK-MEL-28 melanoma): > 100 µM
- TGI (HCC-2998 colon): > 100 µM
- TGI (OVCAR-5 ovarian): > 100 µM
- TGI (SK-OV-3 ovarian): > 100 µM
- TGI (SNB-78 CNS): > 100 µM
- TGI (LXFL 529 NSCLC): > 100 µM
- TGI (SF-268 CNS): > 100 µM
- TGI (K-562 leukemia): > 100 µM
- TGI (KM20L2 colon): > 100 µM
- TGI (A549 NSCLC): > 100 µM
- TGI (DMS 114 small cell lung): > 100 µM
- TGI (HOP-92 NSCLC): > 100 µM
- TGI (SNB-75 CNS): > 100 µM
- TGI (SN12C renal): > 100 µM
- TGI (MOLT-4 leukemia): > 100 µM
- TGI (U251 CNS): > 100 µM

SMILES: Cc1c2ccccc2c(C)c2c3c(ccc12)C(=O)C=CC3=O
- TGI (SK-MEL-2 melanoma): > 84.6 µM
- TGI (TK-10 renal): 36.7 µM
- TGI (RXF 393 renal): 27.4 µM
- TGI (SF-295 CNS): > 31.6 µM
- TGI (COLO 205 colon): 31.5 µM
- TGI (ACHN renal): 33.3 µM
- TGI (DLD-1 colon): 40.8 µM
- TGI (NCI-H522 lung): 28 µM
- TGI (M14 melanoma): > 81.2 µM
- TGI (HOP-18 NSCLC): > 69.3 µM
- TGI (KM12 colon): > 67.6 µM
- TGI (HCT-116 colon): 49.7 µM
- TGI (M19-MEL melanoma): 35.8 µM
- TGI (CAKI-1 renal): 46.3 µM
- TGI (SW-620 colon): 47 µM
- TGI (SF-539 CNS): > 100 µM
- TGI (DMS 273 small cell lung): > 100 µM
- TGI (CCRF-CEM leukemia): 6.75 µM
- TGI (HT29 colon): > 65.8 µM
- TGI (SK-MEL-5 melanoma): > 79.3 µM
- TGI (UACC-257 melanoma): 41.5 µM
- TGI (MALME-3M melanoma): > 79.2 µM
- TGI (XF 498 CNS): 31.6 µM
- TGI (UACC-62 melanoma): > 100 µM
- TGI (SR leukemia): 25.2 µM
- TGI (OVCAR-3 ovarian): 38.3 µM
- TGI (UO-31 renal): 41.7 µM
- TGI (HOP-62 NSCLC): > 90.9 µM
- TGI (NCI-H23 lung): > 85.4 µM
- TGI (NCI-H226 lung): > 100 µM
- TGI (EKVX NSCLC): > 85 µM
- TGI (HL-60(TB) leukemia): 5.3 µM
- TGI (IGROV1 ovarian): 55.5 µM
- TGI (OVCAR-8 ovarian): 28.7 µM
- TGI (A498 renal): > 100 µM
- TGI (SNB-19 CNS): > 100 µM
- TGI (HCT-15 colon): 42.4 µM
- TGI (OVCAR-4 ovarian): 39.4 µM
- TGI (RPMI-8226 leukemia): 60.6 µM
- TGI (786-0 renal): > 62.2 µM
- TGI (LOX IMVI melanoma): > 63.4 µM
- TGI (NCI-H460 lung): > 100 µM
- TGI (SK-MEL-28 melanoma): > 57.1 µM
- TGI (HCC-2998 colon): > 100 µM
- TGI (OVCAR-5 ovarian): > 100 µM
- TGI (SK-OV-3 ovarian): > 100 µM
- TGI (SNB-78 CNS): 38 µM
- TGI (LXFL 529 NSCLC): 31.5 µM
- TGI (SF-268 CNS): 43.1 µM
- TGI (K-562 leukemia): 50.9 µM
- TGI (KM20L2 colon): > 100 µM
- TGI (A549 NSCLC): > 100 µM
- TGI (DMS 114 small cell lung): 25.8 µM
- TGI (HOP-92 NSCLC): 32.4 µM
- TGI (SNB-75 CNS): > 100 µM
- TGI (SN12C renal): > 69.1 µM
- TGI (MOLT-4 leukemia): 6.78 µM
- TGI (U251 CNS): > 100 µM
